IC50 and Ki data for 11 molecules are collected here from patent US20250313572A1, “MACROCYCLIC MCL-1 INHIBITORS AND METHODS OF USE” (AbbVie Inc., priority 2017, published 2025).

Assay [1] concerns AMO-1 human multiple myeloma tumor cell line. In words: AMO-1 cell viability assay (CellTiter-Glo, 24 hours). In kind it is cell-based. The note with it: Homo sapiens, AMO1, 24 h, read-out: AMO-1 Viability IC50 (μM, 10% FBS), 10% FBS, 24 hours of compound treatment. A general note: Cellular ATP, detected with luciferase, serves as a proxy for viable cell number.
Protocol: Each concentration was tested in duplicate at least 3 independent times. A luminescent signal proportional to the number of viable cells following 24 hours of compound treatment was determined using the CellTiter-Glo® Luminescent Cell Viability Assay according to the manufacturer's recommendations (Promega Corp., Madison, WI). The plates were read in a Perkin Elmer Envision using a Luminescence protocol. To generate dose response curves the data is normalized to percent viability by setting the averages of the staurosporine (10 μM) and DMSO only control wells to 0% and 100% viability respectively.
Assay [2] concerns NCI-H929 human multiple myeloma tumor cell line. In words: NCI-H929 cell viability assay (CellTiter-Glo, 24 hours). In kind it is cell-based. The following applies: Homo sapiens, NCI-H929, 24 h, read-out: H929 Viability IC50 (μM, 10% FBS), 10% FBS, 24 hours of compound treatment.
A further assay has as its target GST-MCL-1 (Homo sapiens, UniProt Q07820). In words: TR-FRET MCL-1 binding assay (competition with probe F-Bak). An outline of the steps: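 Test compounds, 11 three-fold dilutions from 25 μM final, incubated 2 hours at room temperature with GST-MCL-1, F-Bak probe and Tb-anti-GST antibody. TR-FRET read at 340/35 nm excitation with 520/525 and 495/510 nm emission. Run without human serum and with 10% HS.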
Background: TR-FRET usually uses a lanthanide donor and a delayed reading to cut background.

Where [3] appears, read: MCL-1 Binding Ki (nM, 10% HS), in the presence of 10% HS (human serum).
Setting [4] is: without HS, read-out: MCL-1 Binding Ki.

Like-named read-outs stand apart in the source and are kept apart here. Where only a bound is given, the exact number is not on record here.

By IC50 is commonly meant the concentration that gives 50% inhibition. A word on the Ki: it is the dissociation constant of the complex between target and ligand, obtained from inhibition or displacement.

GST-MCL-1, sequence (Q07820 whole entry): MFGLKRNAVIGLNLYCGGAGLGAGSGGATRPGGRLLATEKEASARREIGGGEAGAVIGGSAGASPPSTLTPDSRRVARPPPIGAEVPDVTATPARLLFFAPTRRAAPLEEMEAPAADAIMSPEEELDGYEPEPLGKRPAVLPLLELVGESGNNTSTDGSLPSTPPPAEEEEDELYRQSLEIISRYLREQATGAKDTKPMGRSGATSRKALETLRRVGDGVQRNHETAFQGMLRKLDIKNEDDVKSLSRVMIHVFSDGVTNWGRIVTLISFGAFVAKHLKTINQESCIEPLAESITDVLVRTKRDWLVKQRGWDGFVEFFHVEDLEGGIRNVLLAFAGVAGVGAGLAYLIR

Regarding `CO[C@@H]1CO[C@H]2[C@@H]1OC[C@H]2OCCOCCOc1nccc(COc2ccc3cc2C[C@H](C(=O)O)Oc2ncnc4sc(-c5ccc(F)cc5)c(c24)-c2c(C)c(Cl)c(c(Cl)c2C)O[C@H](CN2CCN(C)CC2)CO3)n1` [Example 133, (7R,16R)-19,23-dichloro-1-(4-fluorophenyl)-10-({2-[2-(2-{[(3R,3aR,6R,6aR)-6-methoxyhexahydrofuro[3,2-b]furan-3-yl]oxy}ethoxy)ethoxy]pyrimidin-4-yl}methoxy)-20,22-dimethyl-16-[(4-methylpiperazin-1-yl)methyl]-7,8,15,16-tetrahydro-18,21-etheno-13,9-(metheno)-6,14,17-trioxa-2-thia-3,5-diazacyclononadeca[1,2,3-cd]indene-7-carboxylic Acid], the results for the half-maximal inhibitory concentration (IC50) in assay [1] and in assay [2] were 3240 pM and 0.00879 µM, respectively. Also, the figures for the Ki at GST-MCL-1 (setting [3]) and at GST-MCL-1 (setting [4]) were 0.168 nM and 0.044 nM, respectively.
On the same counts, the results for `CO[C@@H]1CO[C@H]2[C@@H]1OC[C@H]2OCCOc1nccc(COc2ccc3cc2C[C@H](C(=O)O)Oc2ncnc4sc(-c5ccc(F)cc5)c(c24)-c2c(C)c(Cl)c(c(Cl)c2C)O[C@H](CN2CCN(C)CC2)CO3)n1` [Example 134, (7R,16R)-19,23-dichloro-1-(4-fluorophenyl)-10-{[2-(2-{[(3R,3aR,6R,6aR)-6-methoxyhexahydrofuro[3,2-b]furan-3-yl]oxy}ethoxy)pyrimidin-4-yl]methoxy}-20,22-dimethyl-16-[(4-methylpiperazin-1-yl)methyl]-7,8,15,16-tetrahydro-18,21-etheno-13,9-(metheno)-6,14,17-trioxa-2-thia-3,5-diazacyclononadeca[1,2,3-cd]indene-7-carboxylic Acid] are 3040 pM, 0.01 µM, 0.339 nM and 0.047 nM.
On the same counts, the results for `COC[C@@H](COc1ccc(-c2nccc(COc3ccc4cc3C[C@H](C(=O)O)Oc3ncnc5sc(-c6ccc(F)cc6)c(c35)-c3c(C)c(Cl)c(c(Cl)c3C)O[C@H](CN3CCN(C)CC3)CO4)n2)cc1)OC` [Example 136, (7R,16R)-19,23-dichloro-10-[(2-{4-[(25)-2,3-dimethoxypropoxy]phenyl}pyrimidin-4-yl)methoxy]-1-(4-fluorophenyl)-20,22-dimethyl-16-[(4-methylpiperazin-1-yl)methyl]-7,8,15,16-tetrahydro-18,21-etheno-9,13-(metheno)-6,14,17-trioxa-2-thia-3,5-diazacyclononadeca[1,2,3-cd]indene-7-carboxylic acid] are 403 pM, 0.000392 µM, 0.758 nM and 0.027 nM.
For `COC[C@H](COc1ccc(-c2nccc(COc3ccc4cc3C[C@H](C(=O)O)Oc3ncnc5sc(-c6ccc(F)cc6)c(c35)-c3c(C)c(Cl)c(c(Cl)c3C)O[C@H](CN3CCN(C)CC3)CO4)n2)cc1)OC` [Example 137, (7R,16R)-19,23-dichloro-10-[(2-{4-[(2R)-2,3-dimethoxypropoxy]phenyl}pyrimidin-4-yl)methoxy]-1-(4-fluorophenyl)-20,22-dimethyl-16-[(4-methylpiperazin-1-yl)methyl]-7,8,15,16-tetrahydro-18,21-etheno-9,13-(metheno)-6,14,17-trioxa-2-thia-3,5-diazacyclononadeca[1,2,3-cd]indene-7-carboxylic acid], the IC50 in assay [1] was 394 pM; in assay [2], 0.000286 µM. Also, the results for the inhibition constant (Ki) at GST-MCL-1 (setting [3]) and on GST-MCL-1 (setting [4]) were 0.999 nM and 0.031 nM, respectively.
As to `CO[C@@H]1CO[C@H]2[C@@H]1OC[C@H]2OCCOCCOC1CCC(c2nccc(COc3ccc4cc3C[C@H](C(=O)O)Oc3ncnc5sc(-c6ccc(F)cc6)c(c35)-c3c(C)c(Cl)c(c(Cl)c3C)O[C@H](CN3CCN(C)CC3)CO4)n2)CC1` (stereo partly drawn) [Example 138, (7R,16R)-19,23-dichloro-1-(4-fluorophenyl)-10-[(2-{(1r,4r)-4-[2-(2-{[(3R,3aR,6R,6aR)-6-methoxyhexahydrofuro[3,2-b]furan-3-yl]oxy}ethoxy)ethoxy]cyclohexyl}pyrimidin-4-yl)methoxy]-20,22-dimethyl-16-[(4-methylpiperazin-1-yl)methyl]-7,8,15,16-tetrahydro-18,21-etheno-13,9-(metheno)-6,14,17-trioxa-2-thia-3,5-diazacyclononadeca[1,2,3-cd]indene-7-carboxylic Acid], the half-maximal inhibitory concentration (IC50) worked out at 2000 pM in assay [1] and 0.00221 µM in assay [2]. In addition, the Ki stood at 0.049 nM on GST-MCL-1 (read-out: MCL-1 Binding Ki (nM, 10% HS), in the presence of 10% HS (human serum)) and 0.007 nM at GST-MCL-1 (setting [4]).
In the case of `COCCOCCOCC1CN(c2nccc(COc3ccc4cc3C[C@H](C(=O)O)Oc3ncnc5sc(-c6ccc(F)cc6)c(c35)-c3c(C)c(Cl)c(c(Cl)c3C)O[C@H](CN3CCN(C)CC3)CO4)n2)C1` [Example 139, (7R,16R)-19,23-dichloro-1-(4-fluorophenyl)-10-{[2-(3-{[2-(2-methoxyethoxy)ethoxy]methyl}azetidin-1-yl)pyrimidin-4-yl]methoxy}-20,22-dimethyl-16-[(4-methylpiperazin-1-yl)methyl]-7,8,15,16-tetrahydro-18,21-etheno-9,13-(metheno)-6,14,17-trioxa-2-thia-3,5-diazacyclononadeca[1,2,3-cd]indene-7-carboxylic Acid], the half-maximal inhibitory concentration (IC50) in assay [1] is 2310 pM; in assay [2] it was 0.00307 µM. For the same molecule, the Ki at GST-MCL-1 (setting [3]) was 1.21 nM; on GST-MCL-1 (setting [4]) it was 0.147 nM.
The like results for `COCCOCCOCC1CN(c2nccc(COc3ccc4cc3C[C@@H](C(=O)O)Oc3ncnc5sc(-c6ccc(F)cc6)c(c35)-c3c(C)c(Cl)c(c(Cl)c3C)O[C@H](CN3CCN(C)CC3)CO4)n2)C1` [Example 140, (7S,16R)-19,23-dichloro-1-(4-fluorophenyl)-10-{[2-(3-{[2-(2-methoxyethoxy)ethoxy]methyl}azetidin-1-yl)pyrimidin-4-yl]methoxy}-20,22-dimethyl-16-[(4-methylpiperazin-1-yl)methyl]-7,8,15,16-tetrahydro-18,21-etheno-9,13-(metheno)-6,14,17-trioxa-2-thia-3,5-diazacyclononadeca[1,2,3-cd]indene-7-carboxylic Acid] were, in that order, 242000 pM, 0.244 µM, 166 nM and 34.9 nM.
Turning to `COCC(COC)Oc1nccc(COc2ccc3cc2C[C@H](C(=O)O)Oc2ncnc4sc(-c5ccc(F)cc5)c(c24)-c2c(C)c(Cl)c(c(Cl)c2C)O[C@H](CN2CCN(C)CC2)CO3)n1` [Example 141, (7R,16R)-19,23-dichloro-10-({2-[(1,3-dimethoxypropan-2-yl)oxy]pyrimidin-4-yl}methoxy)-1-(4-fluorophenyl)-20,22-dimethyl-16-[(4-methylpiperazin-1-yl)methyl]-7,8,15,16-tetrahydro-18,21-etheno-9,13-(metheno)-6,14,17-trioxa-2-thia-3,5-diazacyclononadeca[1,2,3-cd]indene-7-carboxylic Acid], the figures for the 50% inhibitory concentration (IC50) in assay [1] and in assay [2] were 441 pM and 0.000503 µM, respectively. The values for the Ki on GST-MCL-1 (setting [3]) and at GST-MCL-1 (setting [4]) were 0.363 nM and 0.008 nM, respectively.
The like results for `Cc1c(Cl)c2c(Cl)c(C)c1-c1c(-c3ccc(F)cc3)sc3ncnc(c13)O[C@@H](C(=O)O)Cc1cc(ccc1OCc1ccnc(-c3ccc(CCN4CCOCC4)cc3)n1)OC[C@@H](CN1CCN(C)CC1)O2` [Example 142, (7R,16R)-19,23-dichloro-1-(4-fluorophenyl)-20,22-dimethyl-16-[(4-methylpiperazin-1-yl)methyl]-10-[(2-{4-[2-(morpholin-4-yl)ethyl]phenyl}pyrimidin-4-yl)methoxy]-7,8,15,16-tetrahydro-18,21-etheno-13,9-(metheno)-6,14,17-trioxa-2-thia-3,5-diazacyclononadeca[1,2,3-cd]indene-7-carboxylic Acid] were, in that order, 48.8 pM, 0.000156 µM, 0.776 nM and 0.185 nM.
`Cc1c(Cl)c2c(Cl)c(C)c1-c1c(-c3ccc(F)cc3)sc3ncnc(c13)O[C@@H](C(=O)O)Cc1cc(ccc1OCc1ccnc(-c3cccc(CCN4CCOCC4)c3)n1)OC[C@@H](CN1CCN(C)CC1)O2` [Example 143, (7R,16R)-19,23-dichloro-1-(4-fluorophenyl)-20,22-dimethyl-16-[(4-methylpiperazin-1-yl)methyl]-10-[(2-{3-[2-(morpholin-4-yl)ethyl]phenyl}pyrimidin-4-yl)methoxy]-7,8,15,16-tetrahydro-18,21-etheno-13,9-(metheno)-6,14,17-trioxa-2-thia-3,5-diazacyclononadeca[1,2,3-cd]indene-7-carboxylic Acid]: the 50% inhibitory concentration (IC50) in assay [1] came to 216 pM; in assay [2], 0.000203 µM. For the same molecule, the Ki is 0.175 nM on GST-MCL-1 (setting [3]) and 0.023 nM at GST-MCL-1 (setting [4]).
On the same counts, the results for `Cc1c(Cl)c2c(Cl)c(C)c1-c1c(-c3ccc(F)cc3)sc3ncnc(c13)O[C@@H](C(=O)O)Cc1cc(ccc1OCc1ccnc(N3CCC(C)(N4CCOCC4)CC3)n1)OC[C@@H](CN1CCN(C)CC1)O2` [Example 144, (7R,16R)-19,23-dichloro-1-(4-fluorophenyl)-20,22-dimethyl-10-({2-[4-methyl-4-(morpholin-4-yl)piperidin-1-yl]pyrimidin-4-yl}methoxy)-16-[(4-methylpiperazin-1-yl)methyl]-7,8,15,16-tetrahydro-18,21-etheno-13,9-(metheno)-6,14,17-trioxa-2-thia-3,5-diazacyclononadeca[1,2,3-cd]indene-7-carboxylic Acid] are 1780 pM, 0.0077 µM, > 444 nM and 10.9 nM.
